# From US20220193029A1, “BRYOSTATIN COMPOUNDS FOR ENHANCEMENT OF IMMUNOTHERAPY” (priority 2019, published 2022)
# Tests used:
# PKCα = target: T1, PKCα (Homo sapiens, UniProt P17252); test: cell-free competitive PKC binding assay with [3H]-phorbol dibutyrate; settings: competition with [3H]-PDBu, recombinant human PKC isoform
# T1 construct: purchased Invitrogen
# Description: (§1) Because a prerequisite for PKC pathway involvement is binding to PKC, compounds were initially evaluated for PKC affinity in a cell-free competitive binding assay with tritiated phorbol dibutyrate ([^3H]-PDBu). Assays were performed with representative members of both the conventional (PKCα) and novel (PKCδ) PKC families. Subsequently, compounds were assayed for PKC activation in living cells using an isoform translocation assay.
# (§2) To a 50 mL polypropylene tube was added Tris-HCl (pH 7.4, 1 M, 1 mL), KCl (1 M, 2 mL), CaCl2) (0.1 M, 30 μL), and bovine serum albumin (BSA, 40 mg, Sigma-Aldrich). This mixture was diluted to 20 mL with deionized H2O and mixed gently. The buffer was stored on ice until use.
# (§3) For every two assays, 3.5 mg phosphatidylserine (Avanti Polar Lipids, porcine, 25 mg/mL CHCl3 solution) was concentrated by removing chloroform under a stream of nitrogen followed by reduced pressure. The solid PS was suspended as vesicles in freshly prepared PKC binding assay buffer (3.5 mL) by sonicating six times for 30 sec, with a 30 sec rest between sonications (Branson Sonifier 250, power=2, 50% duty cycle). The resulting milky cloudy mixture (1 mg/mL) was stored on ice until use.
# (§4) Assay PKC was prepared by dissolving a 4 μg aliquot of the indicated recombinant human PKC isoform (Invitrogen) into 11.6 mL of PKC binding assay buffer (this amount is sufficient for two assays). The diluted PKC was stored on ice for immediate use.
# (§5) ^3H-PDBu (American Radiolabeled Chemicals, Inc.; 1 mCi/mL acetone solution; specific activity: 20 Ci/mmol) was diluted […] with DMSO. The resulting 500 nM stock solution was further diluted with DMSO to 30 nM.
# (§6) Compound dilutions were prepared by serially diluting from a chosen “high” concentration by factors of 3 or 4.
# (§7) To a polypropylene tube was added 3.3 mL of 1 mg/mL PS vesicles solution, 11 mL of PKC isoform solution, and 1.1 mL of 30 nM ^3H-PDBu solution were added. The resulting solution was vortexed to mix and stored on ice.
# (§8) Materials: • Glass-fiber filters (Whatman GF/B) were prepared by soaking them in a solution of aqueous polyethyleneimine (10% by vol, 18 mL) in deionized water (600 mL) for ≥1 h. • 500 mL “rinsing buffer” of 20 mM Tris, pH 7.4 was cooled on ice for the duration of the incubation period and for the remainder of the assay.
# Triplicate data points were obtained for each analog concentration. For each data point, 280 μL of “Master Mix” Solution and 20 μL of analog compound at a specified concentration were added to a polypropylene tube. […] Maximal ^3H-PDBu binding was assessed in triplicate by substitution of the analog compound with 20 μL DMSO. The solutions were vortexed to mix, incubated at 37° C. for 10 min, and incubated on ice for at least 30 min prior to filtration. Using a Brandel Harvester, the assay contents from each polypropylene tube were vacuum-filtered through polyethylenimine-soaked filters, washing with rinsing buffer (3×) and drying first under vacuum for 5 min and then under ambient conditions for ≥2 h. The resulting filters had circular perforations for each data point, which were removed with forceps and placed in a scintillation vial. Scintillation vials were filled with Bio-Safe II scintillation fluid (5 mL) and measured for radioactivity using a Beckman LS 6000SC scintillation counter. Counts per minute (cpm) were averaged for each triplicate dilution. The data were plotted—cpm vs. log(concentration)—using Prism® by GraphPad Software and an IC50 was determined using that program's built-in one-site competition least squares regression function. Ki values were calculated using the equation: Ki=IC50/(1+([3H−PDBu]/Kd)). The Kd of ^3H-PDBu for PKC isoforms was measured separately via saturation binding experiments under identical conditions.
# PKCδ = target: T2, PKCδ (Homo sapiens, UniProt Q05655); test: as above; settings: competition with [3H]-PDBu, recombinant human PKC isoform
# T2 construct: purchased Invitrogen
# T2 sequence (Q05655 whole entry, canonical isoform): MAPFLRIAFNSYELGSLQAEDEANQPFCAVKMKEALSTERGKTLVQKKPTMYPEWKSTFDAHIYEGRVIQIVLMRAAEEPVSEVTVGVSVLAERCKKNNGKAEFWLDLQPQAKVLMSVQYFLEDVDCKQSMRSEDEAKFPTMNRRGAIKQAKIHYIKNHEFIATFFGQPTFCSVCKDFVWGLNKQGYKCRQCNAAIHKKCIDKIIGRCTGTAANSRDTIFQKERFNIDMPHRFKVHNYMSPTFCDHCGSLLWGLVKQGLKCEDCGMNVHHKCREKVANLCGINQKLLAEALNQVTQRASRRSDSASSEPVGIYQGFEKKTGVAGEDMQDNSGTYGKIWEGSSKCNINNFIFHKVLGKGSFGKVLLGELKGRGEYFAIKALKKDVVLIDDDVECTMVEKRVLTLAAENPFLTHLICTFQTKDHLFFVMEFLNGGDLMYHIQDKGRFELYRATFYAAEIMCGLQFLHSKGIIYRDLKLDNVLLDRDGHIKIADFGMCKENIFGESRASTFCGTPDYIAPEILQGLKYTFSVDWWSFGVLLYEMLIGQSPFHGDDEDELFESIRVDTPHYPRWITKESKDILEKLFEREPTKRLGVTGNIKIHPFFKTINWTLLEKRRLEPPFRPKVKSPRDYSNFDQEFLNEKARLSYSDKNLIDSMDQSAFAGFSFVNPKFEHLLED
# Description: as §1, §2, §3, §4, §5, §6, §7, §8
# Triplicate data points were obtained for each analog concentration. For each data point, 280 μL of “Master Mix” Solution and 20 μL of analog compound at a specified concentration were added to a polypropylene tube. […] Maximal ^3H-PDBu binding was assessed in triplicate by substitution of the analog compound with 20 μL DMSO. The solutions were vortexed to mix, incubated at 37° C. for 10 min, and incubated on ice for at least 30 min prior to filtration. Using a Brandel Harvester, the assay contents from each polypropylene tube were vacuum-filtered through polyethylenimine-soaked filters, washing with rinsing buffer (3×) and drying first under vacuum for 5 min and then under ambient conditions for ≥2 h. The resulting filters had circular perforations for each data point, which were removed with forceps and placed in a scintillation vial. Scintillation vials were filled with Bio-Safe II scintillation fluid (5 mL) and measured for radioactivity using a Beckman LS 6000SC scintillation counter. Counts per minute (cpm) were averaged for each triplicate dilution. The data were plotted—cpm vs. log(concentration)—using Prism® by GraphPad Software and an IC50 was determined using that program's built-in one-site competition least squares regression function. […] The Kd of ^3H-PDBu for PKC isoforms was measured separately via saturation binding experiments under identical conditions.
SMILES,Ki (PKCα) [nM],Ki (PKCδ) [nM]
CCCCCC#CC(=O)O[C@H]1/C(=C/C(=O)OC)C[C@H]2C[C@H]([C@@H](C)O)OC(=O)C[C@H](O)C[C@@H]3C[C@H](OC(C)=O)C(C)(C)[C@](O)(C[C@@H]4C[C@@](O)(CO)C[C@H](/C=C/C(C)(C)[C@]1(O)O2)O4)O3 [SUW203],1,4.1
CCC/C=C/C=C/C(=O)O[C@H]1/C(=C/C(=O)OC)C[C@H]2C[C@H]([C@@H](C)O)OC(=O)C[C@H](O)C[C@@H]3C[C@H](OC(C)=O)C(C)(C)[C@](O)(C[C@@H]4C[C@H](OC(C)=O)C[C@H](/C=C/C(C)(C)[C@]1(O)O2)O4)O3 [SUW206],1,1.3
CCC/C=C/C=C/C(=O)O[C@H]1/C(=C/C(=O)OC)C[C@H]2C[C@H]([C@@H](C)O)OC(=O)C[C@H](O)C[C@@H]3C[C@H](OC(C)=O)C(C)(C)[C@](O)(C[C@@H]4C[C@@H](OC(C)=O)C[C@H](/C=C/C(C)(C)[C@]1(O)O2)O4)O3 [SUW207],2,5.4
CCCC=CC=CC(=O)OC1C(=CC(=O)OC)CC2CC(C(C)O)OC(=O)CC(O)CC3CC(OC(C)=O)C(C)(C)C(O)(CC4CC(=CC(=O)OCC)CC(C=CC(C)(C)C1(O)O2)O4)O3 (centres unmarked) [SUW217],9.2,9.4
CCCC=CC=CC(=O)OC1C(=CC(=O)OC)CC2CC(C(C)O)OC(=O)CC(O)CC3CC(OC(C)=O)C(C)(C)C(O)(CC4CC(=CC(=O)OCC)CC(C=CC(C)(C)C1(O)O2)O4)O3 (centres unmarked) [SUW218],7.1,6.6
CCCCCCCC(=O)O[C@H]1/C(=C/C(=O)OC)C[C@H]2C[C@H]([C@@H](C)O)OC(=O)C[C@H](O)C[C@@H]3C[C@H](OC(C)=O)C(C)(C)[C@](O)(C[C@@H]4C[C@@H](C)C[C@H](/C=C/C(C)(C)[C@]1(O)O2)O4)O3 [SUW226],5.8,6.6
C=CCOC(=O)/C=C1/C[C@H]2C[C@]3(O)O[C@H](C[C@@H](O)CC(=O)O[C@@H]([C@@H](C)O)C[C@@H]4C/C(=C\C(=O)OC)[C@H](OC(=O)/C=C/C=C/CCC)[C@@](O)(O4)C(C)(C)/C=C/[C@@H](C1)O2)C[C@H](OC(C)=O)C3(C)C [SUW229],1.8,1.2
